Test results reported in patent US9920061B2, “Imidazo[1,5-A]pyrimidinyl carboxamide compounds and their use in the treatment of medical disorders” (Lysosomal Therapeutics Inc., priority 2016, dated 2018).
Values after ≈ are worked out from the molar mass of the structure shown.

Columns and labels:
[1] = target: T1, glucocerebrosidase (Gcase) (Homo sapiens, UniProt P04062); test: Glucocerebrosidase (Gcase) activation assay, 4-methylumbelliferyl-beta-D-glucopyranoside substrate, with saposin C; assay type: biochemical; details: for activation at 0.1 µM: test compound at 0.1 μM, read-out: Percent Gcase Activation, 0.1 μM Test Compound; for activation at 1 µM: test compound at 1.0 μM, read-out: Percent Gcase Activation, 1 μM Test Compound
T1 sequence (P04062 40-536): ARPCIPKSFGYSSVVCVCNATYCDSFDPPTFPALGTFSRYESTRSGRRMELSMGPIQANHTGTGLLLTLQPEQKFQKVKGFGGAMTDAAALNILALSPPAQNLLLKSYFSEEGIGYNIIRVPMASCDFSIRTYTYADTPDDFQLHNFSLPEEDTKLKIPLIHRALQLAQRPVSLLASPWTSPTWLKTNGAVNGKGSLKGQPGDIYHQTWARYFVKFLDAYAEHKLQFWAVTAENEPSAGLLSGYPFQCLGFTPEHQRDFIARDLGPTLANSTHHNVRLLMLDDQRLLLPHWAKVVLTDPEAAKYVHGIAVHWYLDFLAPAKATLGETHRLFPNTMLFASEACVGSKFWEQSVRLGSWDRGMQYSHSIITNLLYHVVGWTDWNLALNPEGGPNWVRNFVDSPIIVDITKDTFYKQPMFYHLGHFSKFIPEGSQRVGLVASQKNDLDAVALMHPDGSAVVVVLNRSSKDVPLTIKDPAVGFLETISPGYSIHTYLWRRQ
Outline: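 Compounds tested at 1.0 and 0.1 μM, then in 8-point 3-fold curves, were pre-incubated 30 min at room temperature with 10 nM GCase plus 100 nM saposin C in PS/triton micelles, pH 4.7. Reaction with substrate (2 mM in micelles before mixing) ran 15 min; stopped at pH 12.5, read at ex 365/em 440 nm.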

[2] = Compound solubility in water; assay type: physicochemical; details: in water

Row | Compound | activation at 0.1 µM [1] [%] | activation at 1 µM [1] [%] | solubility [2] [µg/mL]
1 | Cc1cc(-c2cscc2C#N)nc2c(C(=O)NC(C3CC3)C(F)(F)F)ncn12 (stereo not drawn) [IV-32] | > 20 | > 60 | 0.6 (≈ 1.48 µM)
2 | Cc1cc(-c2ccc(C#N)o2)nc2c(C(=O)NC(C3CC3)C(F)(F)F)ncn12 (stereo not drawn) [IV-33] | > 20 | > 60 | 0.7 (≈ 1.8 µM)
3 | Cc1cc(-c2sccc2C#N)nc2c(C(=O)NC(C3CC3)C(F)(F)F)ncn12 (stereo not drawn) [IV-37] | > 20 | > 60 | 2.4 (≈ 5.92 µM)
4 | Cc1cc(-c2cccc(C#N)n2)nc2c(C(=O)NC(C3CC3)C(F)(F)F)ncn12 (stereo not drawn) [IV-39] | < 10 | 30 to 60 | 0.3 (≈ 0.749 µM)
5 | Cc1cc(-c2ccccc2CC#N)nc2c(C(=O)NC(C3CC3)C(F)(F)F)ncn12 (stereo not drawn) [IV-40] | < 10 | 30 to 60 | 15.4 (≈ 37.3 µM)
6 | Cc1cc(-c2cccc3ncnn23)nc2c(C(=O)NC(C3CC3)C(F)(F)F)ncn12 (stereo not drawn) [IV-41] | < 10 | 30 to 60 | 3.5 (≈ 8.43 µM)
7 | Cc1cc(-c2cccn3cnnc23)nc2c(C(=O)NC(C3CC3)C(F)(F)F)ncn12 (stereo not drawn) [IV-42] | < 10 | > 60 | 2.1 (≈ 5.06 µM)
8 | Cc1cc(-c2ccc3nncn3c2)nc2c(C(=O)NC(C3CC3)C(F)(F)F)ncn12 (stereo not drawn) [IV-43] | < 10 | < 30 | 17.5 (≈ 42.1 µM)
9 | Cc1cc(-c2ccc(F)cc2)nc2c(C(=O)NC(C3CC3)C(F)(F)F)ncn12 (stereo not drawn) [IV-44] | > 20 | > 60 | 0.8 (≈ 2.04 µM)
10 | Cc1cc(-c2ccc(F)cc2)nc2c(C(=O)N[C@H](C3CC3)C(F)(F)F)ncn12 [IV-45] | > 20 | > 60 | 2.5 (≈ 6.37 µM)
11 | Cc1cc(-c2ccc(F)cc2)nc2c(C(=O)N[C@@H](C3CC3)C(F)(F)F)ncn12 [IV-46] | > 20 | > 60 | 0.8 (≈ 2.04 µM)
12 | Cc1cc(-c2cccc3scnc23)nc2c(C(=O)NC(C3CC3)C(F)(F)F)ncn12 (stereo not drawn) [IV-47] | < 10 | 30 to 60 | 3.8 (≈ 8.81 µM)
13 | Cc1cc(-c2ccc3scnc3c2)nc2c(C(=O)NC(C3CC3)C(F)(F)F)ncn12 (stereo not drawn) [IV-49] | > 20 | > 60 | 0.6 (≈ 1.39 µM)
14 | Cc1cc(-c2nccs2)nc2c(C(=O)NC(C3CC3)C(F)(F)F)ncn12 (stereo not drawn) [IV-50] | 10 to 20 | > 60 | 1.5 (≈ 3.93 µM)

Continued, values first:

Row | activation at 0.1 µM [1] [%] | activation at 1 µM [1] [%] | solubility [2] [µg/mL] | Compound
15 | < 10 | < 30 | 1.1 (≈ 3.04 µM) | C#CC(C)(C)NC(=O)c1ncn2c(C)cc(-c3cccc4c3OCO4)nc12 [IV-27]
16 | > 20 | > 60 | 1.1 (≈ 3.02 µM) | Cc1cc(-c2ccc3c(c2)OCO3)nc2c(C(=O)N[C@@H](C)C3CC3)ncn12 [IV-28]
17 | > 20 | > 60 | 1.1 (≈ 3.02 µM) | Cc1cc(-c2ccc3c(c2)OCO3)nc2c(C(=O)N[C@H](C)C3CC3)ncn12 [IV-29]
18 | > 20 | > 60 | 0.5 (≈ 1.37 µM) | Cc1cc(-c2cccc3c2OCO3)nc2c(C(=O)N[C@@H](C)C3CC3)ncn12 [IV-30]
19 | 10 to 20 | > 60 | 1.4 (≈ 3.84 µM) | Cc1cc(-c2cccc3c2OCO3)nc2c(C(=O)N[C@H](C)C3CC3)ncn12 [IV-31]
20 | > 20 | > 60 | 0.5 (≈ 1.2 µM) | Cc1cc(-c2cccc(C#N)c2F)nc2c(C(=O)NC(C3CC3)C(F)(F)F)ncn12 (stereo not drawn) [IV-36]
21 | > 20 | > 60 | 0.4 (≈ 0.958 µM) | Cc1cc(-c2cccc(F)c2C#N)nc2c(C(=O)NC(C3CC3)C(F)(F)F)ncn12 (stereo not drawn) [IV-38]
22 | 10 to 20 | > 60 | 0.4 (≈ 0.927 µM) | Cc1cc(-c2cccc3ncsc23)nc2c(C(=O)NC(C3CC3)C(F)(F)F)ncn12 (stereo not drawn) [IV-48]
